Assay [1] concerns Myzus persicae. Description: Myzus persicae spray test (Chinese cabbage leaf discs). Type of assay: in vivo. The note with it: foliar, 120 h, 500 g/ha, after 5-6 days, read-out: efficacy. Here is the method: Myzus persicae—Spray Test Solvent: 78 parts by weight of acetone • • 1.5 parts by weight of dimethylformamide Emulsifier: alkylaryl polyglycol ether To produce a suitable preparation of active compound, 1 part by weight of active compound is dissolved using the specified parts by weight of solvent and made up with water containing an emulsifier concentration of 1000 ppm until the desired concentration is attained. To produce further test concentrations, the formulation is diluted with emulsifier-containing water. Discs of Chinese cabbage leaves (Brassica pekinensis) infested by all stages of the green peach aphid (Myzus persicae) are sprayed with an active compound preparation of the desired concentration. After 5-6 days, the efficacy in % is determined. 100% means that all the aphids have been killed; 0% means that no aphids have been killed.

The test system of assay [2] is Myzus persicae. In words: Myzus persicae oral test. It counts as in vivo. The note with it: 120 h, 20 ppm, oral uptake, after 5 days, read-out: efficacy. As to the method: Myzus persicae—Oral Test Solvent: 100 parts by weight of acetone To produce a suitable preparation of active compound, 1 part by weight of active compound is dissolved using the specified parts by weight of solvent and made up with water until the desired concentration is attained. 50 μl of the active compound preparation are transferred into microtitre plates and made up to a final volume of 200 μl with 150 μl of IPL41 insect medium (33%+15% sugar). Subsequently, the plates are sealed with parafilm, which a mixed population of green peach aphids (Myzus persicae) within a second microtitre plate is able to puncture and imbibe the solution through it. After 5 days, the efficacy in % is determined. 100% means that all the aphids have been killed; 0% means that no aphids have been killed.

For `COc1ccc(OC)c(S(=O)(=O)NC(=O)c2cn(C)c(-c3ncccc3F)n2)c1` [Example 608], the pest or weed control at 500 g/ha in assay [1] is 100%.
For `COc1ccc(Cl)c(S(=O)(=O)NC(=O)c2nc(-c3c(F)cccc3F)[nH]c2C)c1` [Example 191], in assay [2], the pest or weed control at 20 ppm came out at 90%.
Turning to `CCc1[nH]c(-c2cccc(C(F)(F)F)c2)nc1C(=O)NS(=O)(=O)c1ccccc1Cl` [Example 247], the pest or weed control at 20 ppm in assay [2] was 100%.
Same read-out and setting: the same measure for `COc1ccc(Cl)c(S(=O)(=O)NC(=O)c2nc(-c3ccccc3Cl)c(C)[nH]2)c1` [Example 201]: 100%.
Regarding `Cn1cc(C(=O)NS(C)(=O)=O)nc1-c1ccccc1Cl` [Example 65], the pest or weed control at 500 g/ha in assay [1] turned out to be 90%.
Still for that read-out and setting: the same measure for `Cn1cc(C(=O)NS(=O)(=O)c2cc(F)ccc2F)nc1-c1c(F)cccc1F` [Example 455]: 90%.
As to `CCc1[nH]c(-c2cc(Cl)cc(Cl)c2)nc1C(=O)NS(=O)(=O)c1ccccc1OC` [Example 137], the pest or weed control at 20 ppm in assay [2] came out at 90%.
As to `Cc1cc(C(=O)NS(=O)(=O)c2ccccc2Br)nn1-c1cccc(Cl)c1Cl` [Example 302], in assay [2], the pest or weed control at 20 ppm was 100%.
For `COc1ccc(OC)c(S(=O)(=O)NC(=O)c2cn(C)c(-c3ccccc3S(C)(=O)=O)n2)c1` [Example 509], in assay [2], the pest or weed control at 20 ppm is 100%.
Take `CCc1[nH]c(-c2c(C)cccc2C)nc1C(=O)NS(=O)(=O)c1ccccc1Cl` [Example 208]: the pest or weed control at 20 ppm in assay [2] amounted to 90%.
As to `Cc1[nH]c(-c2cccc(Cl)c2)nc1C(=O)NS(=O)(=O)C(C)C` [Example 236], the pest or weed control at 20 ppm in assay [2] amounted to 90%.
As to `Cc1[nH]c(C(=O)NS(=O)(=O)c2ccccc2Cl)nc1-c1ccccc1Cl` [Example 418], in assay [2], the pest or weed control at 20 ppm is 90%.
As to `COc1cccc(C(F)(F)F)c1S(=O)(=O)NC(=O)c1cn(C)c(-c2c(F)cccc2F)n1` [Example 374], in assay [1], the pest or weed control at 500 g/ha stood at 100%.
Still for that read-out and setting: the same measure for `COc1ccc(Cl)c(S(=O)(=O)NC(=O)c2cnc(-c3cc(Cl)cc(Cl)c3)[nH]2)c1` [Example 224]: 90%.
On to `Cc1ccccc1S(=O)(=O)NC(=O)c1cnc(-c2c(F)cccc2F)n1C` [Example 163], for which, in assay [2], the pest or weed control at 20 ppm was determined as 100%.
Still for that read-out and setting: the result for `Cc1cc(C(=O)NS(=O)(=O)c2ccc(Cl)s2)nn1-c1cc(Cl)ccc1Cl` [Example 299] reads 90%.
`CS(=O)(=O)NC(=O)c1cn(-c2cccc(Cl)c2)c(-c2ccccc2Cl)n1` [Example 72]: the pest or weed control at 500 g/ha in assay [1] was found to be 90%.
In the case of `CCc1[nH]c(-c2cccc(Cl)c2)nc1C(=O)NS(=O)(=O)C(C)C` [Example 131], the pest or weed control at 20 ppm in assay [2] came out at 90%.
Take `CCc1ccc(OC)c(S(=O)(=O)NC(=O)c2cn(C)c(-c3c(F)cccc3F)n2)c1` [Example 391]: in assay [1], the pest or weed control at 500 g/ha turned out to be 90%.
Turning to `Cn1cc(C(=O)NS(=O)(=O)c2cnc(Cl)s2)nc1-c1c(F)cccc1F` [Example 345], the pest or weed control at 20 ppm in assay [2] worked out at 90%.
On to `Cn1cc(C(=O)NS(=O)(=O)c2ccccc2C(F)(F)F)nc1-c1c(F)cc(F)cc1F` [Example 5], for which, in assay [1], the pest or weed control at 500 g/ha turned out to be 90%.
Still for that read-out and setting: the result for `CCc1[nH]c(-c2cc(F)cc(F)c2)nc1C(=O)NS(=O)(=O)C(C)C` [Example 127] reads 90%; that for `Cn1cc(C(=O)NS(=O)(=O)CC(F)(F)F)nc1-c1c(F)cccc1F` [Example 84], 100%.
Consider `COc1ccc(Br)cc1S(=O)(=O)NC(=O)c1nc(-c2c(F)cccc2F)n(C)n1` [Example 327], for which the pest or weed control at 20 ppm in assay [2] stood at 90%.
Take `Cn1cc(C(=O)NS(C)(=O)=O)nc1-c1c(Cl)cccc1Cl` [Example 83]: the pest or weed control at 500 g/ha in assay [1] stood at 90%.
For `COc1ccc(Cl)c(S(=O)(=O)NC(=O)c2nc(-c3ccc(Cl)c(Cl)c3)[nH]c2C)c1` [Example 615], the pest or weed control at 20 ppm in assay [2] came to 100%.
Same read-out and setting: the same measure for `CSc1ccccc1-c1nc(C(=O)NS(=O)(=O)c2ccccc2Cl)cn1C` [Example 213]: 100%.
Consider `Cc1ccc(F)cc1S(=O)(=O)NC(=O)c1cc(C)n(-c2cccc(Cl)c2Cl)n1` [Example 305], for which, in assay [2], the pest or weed control at 20 ppm amounted to 90%.
Take `CCOc1ccccc1S(=O)(=O)NC(=O)c1cn(C)c(-c2c(F)cccc2Cl)n1` [Example 154]: the pest or weed control at 500 g/ha in assay [1] amounted to 90%.
Consider `Cc1ccccc1S(=O)(=O)NC(=O)c1cn(C)c(-c2ccccn2)n1` [Example 493], for which the pest or weed control at 500 g/ha in assay [1] stood at 100%.
Turning to `Cc1nn(C)c(Cl)c1S(=O)(=O)NC(=O)c1cn(C)c(-c2c(F)cccc2F)n1` [Example 348], in assay [2], the pest or weed control at 20 ppm was determined as 100%.
`CC(C)c1cccc(-c2nc(C(=O)NS(=O)(=O)c3ccccc3Cl)c(C(C)C)[nH]2)c1` [Example 612]: the pest or weed control at 20 ppm in assay [2] was determined as 100%.
On the same count and under the same terms, the result for `CCc1[nH]c(-c2cccc(Br)c2)nc1C(=O)NS(=O)(=O)c1ccccc1Cl` [Example 136] reads 90%; that for `Cc1[nH]c(-c2cccc(C(C)C)c2)nc1C(=O)NS(=O)(=O)c1ccccc1Cl` [Example 617], 100%.
On to `CCc1[nH]c(-c2ccc(Cl)cc2)nc1C(=O)NS(=O)(=O)C(C)C` [Example 601], for which the pest or weed control at 20 ppm in assay [2] turned out to be 90%.
In the case of `Cc1ccccc1S(=O)(=O)NC(=O)c1cn(C)c(-c2ccccc2OC(F)(F)F)n1` [Example 458], the pest or weed control at 500 g/ha in assay [1] came out at 90%.
On to `CCS(=O)(=O)NC(=O)c1cn(C)c(-c2ccccc2C)n1` [Example 89], for which the pest or weed control at 500 g/ha in assay [1] came out at 90%.
Take `Cn1cc(C(=O)NS(=O)(=O)c2ccccc2N)nc1-c1ccccc1Cl` [Example 132]: the pest or weed control at 20 ppm in assay [2] came to 100%.
On to `Cc1ccccc1S(=O)(=O)NC(=O)c1cn(C)c(-c2cccnc2)n1` [Example 488], for which the pest or weed control at 500 g/ha in assay [1] is 90%.
The same measure, in the same setting: the result for `Cn1cc(C(=O)NS(=O)(=O)c2cc(C(F)(F)F)ccc2C(F)(F)F)nc1-c1c(F)cccc1F` [Example 400] reads 90%; that for `Cn1cc(C(=O)NS(=O)(=O)c2ccc(C#N)cc2)nc1-c1ccccc1Cl` [Example 168], 90%.
On the same count and under the same terms, the result for `CCS(=O)(=O)NC(=O)c1cn(C)c(-c2c(F)cccc2F)n1` [Example 86] reads 100%.
Same read-out and setting: the result for `Cn1cc(C(=O)NS(=O)(=O)CC(F)(F)F)nc1-c1c(Cl)cccc1Cl` [Example 80] reads 90%; that for `Cn1cc(C(=O)NS(=O)(=O)c2c(F)cccc2F)nc1-c1c(Cl)cccc1Cl` [Example 24], 90%; that for `Cn1cc(C(=O)NS(=O)(=O)c2cccc(C#N)c2)nc1-c1ccccc1Cl` [Example 167], 90%.
As for `COc1cc(C)c(S(=O)(=O)NC(=O)c2cn(C)c(-c3c(F)cccc3F)n2)cc1C` [Example 138], the pest or weed control at 500 g/ha in assay [1] was 100%.
Same read-out and setting: the same measure for `Cn1cc(C(=O)NS(=O)(=O)c2ccccc2)nc1-c1ccccc1Cl` [Example 229]: 100%.
Turning to `CCc1[nH]c(-c2cccc(Cl)c2)nc1C(=O)NS(=O)(=O)c1cc(OC)ccc1Cl` [Example 130], the pest or weed control at 20 ppm in assay [2] is 90%.
As to `Cc1[nH]c(-c2cccc(C(C)C)c2)nc1C(=O)NS(=O)(=O)C(C)C` [Example 620], the pest or weed control at 20 ppm in assay [2] was 90%.
For the molecule `CCc1[nH]c(-c2cc(C)cc(C)c2)nc1C(=O)NS(=O)(=O)c1ccccc1C` [Example 470], in assay [2], the pest or weed control at 20 ppm was determined as 100%.
Consider `COc1ccccc1S(=O)(=O)NC(=O)c1cn(C)c(-c2ccccc2SC)n1` [Example 215], for which the pest or weed control at 20 ppm in assay [2] is 90%.
The same measure, in the same setting: the same measure for `CCc1c(C(=O)NS(=O)(=O)c2ccccc2Br)nc(-c2c(F)cccc2F)n1C` [Example 198]: 100%; for `COc1ccc(Cl)c(S(=O)(=O)NC(=O)c2nc(-c3cccc(Cl)c3)[nH]c2C)c1` [Example 619]: 100%; for `CCc1[nH]c(-c2ccc(F)cc2F)nc1C(=O)NS(=O)(=O)c1ccccc1C` [Example 245]: 100%.
The same measure, in the same setting: the same measure for `CCCOc1ccc(Cl)c(S(=O)(=O)NC(=O)c2cn(C)c(-c3c(F)cccc3F)n2)c1` [Example 180]: 100%.
The same measure, in the same setting: the same measure for `COc1ccccc1S(=O)(=O)NC(=O)c1cn(C)c(-c2csc3ccccc23)n1` [Example 531]: 90%; for `Cn1cc(C(=O)NS(=O)(=O)c2cc(C#N)ccc2Cl)nc1-c1c(F)cccc1F` [Example 452]: 100%; for `Cc1cccc(OS(C)(=O)=O)c1S(=O)(=O)NC(=O)c1cn(C)c(-c2c(F)cccc2F)n1` [Example 368]: 90%.
`Cc1cccc(Cl)c1S(=O)(=O)NC(=O)c1cc(C)n(-c2cccc(Cl)c2Cl)n1` [Example 306]: the pest or weed control at 20 ppm in assay [2] turned out to be 100%.
Still for that read-out and setting: the result for `O=C(NS(=O)(=O)c1ccccc1Cl)c1c[nH]c(-c2c(F)cccc2F)n1` [Example 412] reads 90%; that for `CCc1[nH]c(-c2cccc(C(F)(F)F)c2)nc1C(=O)NS(=O)(=O)C(C)C` [Example 248], 100%.
Still for that read-out and setting: the same measure for `CSc1ccccc1-c1nc(C(=O)NS(=O)(=O)c2ccccc2C)cn1C` [Example 214]: 100%.

These data come from US20200288710A1, “SUBSTITUTED SULPHONAMIDES FOR CONTROLLING ANIMAL PESTS” (BAYER CROPSCIENCE AKTIENGESELLSCHAFT, priority 2016, published 2020).
